# Laboratory results reported in BindingDB's records for doi:10.1021/jm801126a (Cornell University, 2009).
# Target: T1, S-adenosylmethionine decarboxylase proenzyme (Homo sapiens, UniProt P17707)
# T1 sequence (P17707 whole entry): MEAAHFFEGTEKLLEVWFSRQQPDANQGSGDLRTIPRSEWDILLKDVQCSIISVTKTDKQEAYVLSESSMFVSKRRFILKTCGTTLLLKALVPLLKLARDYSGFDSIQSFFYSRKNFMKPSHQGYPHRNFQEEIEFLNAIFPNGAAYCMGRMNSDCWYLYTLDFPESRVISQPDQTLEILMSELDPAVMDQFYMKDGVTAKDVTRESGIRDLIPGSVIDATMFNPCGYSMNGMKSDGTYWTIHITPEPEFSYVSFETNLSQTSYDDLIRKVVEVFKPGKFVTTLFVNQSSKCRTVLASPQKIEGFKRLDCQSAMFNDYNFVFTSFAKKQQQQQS
# Assay: AdoMetDC Inhibition Assay
# Protocol: The C-terminal his-tagged AdoMetDC was assayed by measuring the release of 14CO2 from S-adenosyl-L-[carboxy-14C]methionine (Amersham Pharmacia Biotech). For determination of the abilities of compounds to inhibit AdoMetDC, the enzyme activity was determined in the presence of no inhibitor and at least five concentrations of each potential inhibitor. The IC50 values were determined from curve fitting to plots of the inhibitor concentration versus the % inhibition of AdoMetDC.
smiles,measurement,value
"C[S+](C)C[C@H]1O[C@@H](n2cnc3c(N)ncnc32)[C@H](O)[C@@H]1O [{[(2S,3S,4R,5R)-5-(6-amino-9H-purin-9-yl)-3,4-dihydroxyoxolan-2-yl]methyl}dimethylsulfanium chloride]",IC50,15 µM
